Measurements published in ChEMBL document CHEMBL3885861, “Open TG-GATES”.

Species: Rattus norvegicus
Assay: Open TG-GATES - Regimen: Daily Repeat
Format: toxicity, organism-based, Sprague-Dawley
Set-up: regimen Daily Repeat, gender Male, age 6 weeks
Details: in vivo, po, 100 mg/kg, […], route gavage, dose level Low; for KIDNEY_L / KIDNEY_R / KIDNEY_TOTAL: tissue Kidney; for LIVER: tissue Liver; for A/G / ALP / ALT / AST / BUN / CRE / Ca / Cl / DBIL / GLC / IP / K / LDH / Na / PL / RALB / TBIL / TC / TG / TP / gamma-GTP: tissue Plasma

SMILES: CC[C@@H](CO)NCCN[C@@H](CC)CO [ETHAMBUTOL]
- Lym (tissue Blood, time 28 day): 81.2%
- MCH (tissue Blood, time 28 day): 18.3 pg
- MCHC (tissue Blood, time 28 day): 34.7%
- MCV (tissue Blood, time 28 day): 52.9 fL
- Mono (tissue Blood, time 28 day): 2%
- Neu (tissue Blood, time 28 day): 14%
- PT (tissue Blood, time 28 day): 16.6 s
- Plat (tissue Blood, time 28 day): 94.5 x10_4/uL
- RBC (tissue Blood, time 28 day): 792.8 x10_4/ul
- Ret (tissue Blood, time 28 day): 2.6%
- WBC (tissue Blood, time 28 day): 137.8 x10_2/uL
- KIDNEY_L (time 7 day): 1.1 g
- KIDNEY_R (time 7 day): 1.1 g
- KIDNEY_TOTAL (time 7 day): 2.3 g
- KIDNEY_L (time 14 day): 1.3 g
- KIDNEY_R (time 14 day): 1.3 g
- KIDNEY_TOTAL (time 14 day): 2.6 g
- KIDNEY_L (time 28 day): 1.3 g
- KIDNEY_R (time 28 day): 1.4 g
- KIDNEY_TOTAL (time 28 day): 2.7 g
- LIVER (time 7 day): 13.7 g
- LIVER (time 14 day): 14.2 g
- LIVER (time 28 day): 15.1 g
- A/G (time 7 day): 1.1
- ALP (time 7 day): 1577.2 IU/L
- ALT (time 7 day): 42.2 IU/L
- AST (time 7 day): 67.2 IU/L
- BUN (time 7 day): 18.2 mg/dL
- CRE (time 7 day): 0.2 mg/dL
- Ca (time 7 day): 10.4 mg/dL
- Cl (time 7 day): 106.6 meq/L
- DBIL (time 7 day): 0 mg/dL
- GLC (time 7 day): 185.4 mg/dL
- IP (time 7 day): 7.6 mg/dL
- K (time 7 day): 4 meq/L
- LDH (time 7 day): 154.6 IU/L
- Na (time 7 day): 141.8 meq/L
- PL (time 7 day): 147.6 mg/dL
- RALB (time 7 day): 3 g/dL
- TBIL (time 7 day): 0.01 mg/dL
- TC (time 7 day): 74.8 mg/dL
- TG (time 7 day): 113.6 mg/dL
- TP (time 7 day): 5.8 g/dL
- gamma-GTP (time 7 day): 2.4 IU/L
- A/G (time 14 day): 1.2
- ALP (time 14 day): 1502.6 IU/L
- ALT (time 14 day): 47.4 IU/L
- AST (time 14 day): 75.2 IU/L
- BUN (time 14 day): 19.6 mg/dL
- CRE (time 14 day): 0.2 mg/dL
- Ca (time 14 day): 10.3 mg/dL
- Cl (time 14 day): 106.4 meq/L
- DBIL (time 14 day): 0 mg/dL
- GLC (time 14 day): 195.4 mg/dL
- IP (time 14 day): 6.8 mg/dL
- K (time 14 day): 4.1 meq/L
- LDH (time 14 day): 144.6 IU/L
- Na (time 14 day): 141 meq/L
- PL (time 14 day): 132.8 mg/dL
- RALB (time 14 day): 3 g/dL
- TBIL (time 14 day): 0.014 mg/dL
- TC (time 14 day): 67 mg/dL
- TG (time 14 day): 81 mg/dL
- TP (time 14 day): 5.5 g/dL
- gamma-GTP (time 14 day): 2 IU/L
- A/G (time 28 day): 1.1
- ALP (time 28 day): 1233.8 IU/L
- ALT (time 28 day): 47.4 IU/L
- AST (time 28 day): 77 IU/L
- BUN (time 28 day): 20.8 mg/dL
- CRE (time 28 day): 0.2 mg/dL
- Ca (time 28 day): 9.8 mg/dL
- Cl (time 28 day): 106.4 meq/L
- DBIL (time 28 day): 0 mg/dL
- GLC (time 28 day): 195.6 mg/dL
- IP (time 28 day): 6 mg/dL
- K (time 28 day): 3.9 meq/L
- LDH (time 28 day): 143.6 IU/L
- Na (time 28 day): 141.8 meq/L
- PL (time 28 day): 133 mg/dL
- RALB (time 28 day): 2.9 g/dL
- TBIL (time 28 day): 0.026 mg/dL
- TC (time 28 day): 76.8 mg/dL
- TG (time 28 day): 62.4 mg/dL
- TP (time 28 day): 5.7 g/dL
- gamma-GTP (time 28 day): 1.8 IU/L
